These results are taken from patent US20230235374A1, “High Throughput Assays for Detecting Translation Readthrough Inducers” (The Trustees of the University of Pennsylvania, priority 2021, published 2023).

Read-outs that look alike come from different tables or passages of the source.

Data set [1] deals with Stop-POST5 complex (RFC-dependent termination). In words: smTIRF assay of RFC-dependent peptide and tRNA release. The data set is classed as biochemical, shrimp (Artemia salina). How it is done:
Immobilization of ribosome Stop-POST 5 complexes. PEGylated flow chambers were incubated in 0.5 mg/ml streptavidin for 5 mins and washed with Buffer 4. Biotinylated Stop-POST5 containing FK(atto647)VRQ-tRNA^Gln (Cy3) in the P-site, was formed at room temperature by incubating Stop-POST4, eEF1A, GTP, and Gln-(Cy3)tRNA^Gln for 5 mins and then injected into the streptavidin-coated slide chamber. After a 5 min incubation, excess unbound ribosome was flowed out. Then eRF1/eRF3±TRIDs was injected dynamically at 3 sec while recording. The injection dead time was subtracted for each particle.
Single-molecule fluorescence imaging. All sm-TIRF studies were carried out at 24° C. All dilutions, complex formation, and single-molecule imaging were carried out in Buffer 4 with an added enzymatic oxygen scavenging system of 2 mM protocatechuic acid (PCA), 50 nM protocatechunate 3,4 dioxygenase (PCD, Sigma Aldrich), 1 mM cyclooctatetraene (COT, Sigma Aldrich), 1 mM 4-nitrobenzyl alcohol (NBA, Sigma Aldrich), and 1.5 mM 6-hydroxy-2,5,7,8-tetramethyl-chromane-2-carboxylic acid (Trolox, Sigma-Aldrich) (Flis et al., Cell reports, 25(10), 2676-2688 (2018).
Image stacks were recorded at 100 ms frame rate on a custom-built objective-type total internal reflection fluorescence (TIRF) microscope based on a commercial inverted microscope (Eclipse Ti-E, Nikon) and capable of performing alternating-laser excitation (ALEX) between 532 nm and 640 nm laser beams using an acousto-optic tunable filter (AOTF, Chen et al., 2011). For the time-lapse experiment, timing of the movies, programmed into NIS-Elements (Nikon) microscope software, were recorded by illuminating the sample for 50-20 frames at 10 frames per s with 15 s or […] intervening dark intervals. Video recording was started and then eRF1/eRF3±TRIDs was injected from a triggered syringe pump at 3 sec while recording. The injection dead time was subtracted for each particle. Triggering of the shutters, AOTF, and pump was synchronized using LabView scripts driven from the camera exposure signal.
Data analysis. Collected movies were analyzed by a custom-made software program developed as an ImageJ plugin (Chen et al., Mol. Cell, 42, 367-377 (2011)), and further analyzed using Python. Distributions of peptide and tRNA dissociation times were fit to eq (5), using maximum likelihood estimation (Bevington and Robinson. Data Reduction and Error Analysis for the Physical Sciences. New York: McGraw-Hill, (2002); Woody et al., Biophys. J. 111, 273-282 (2016)), where P is the probability density.
smTIRF results using Atto(pep)-Cy-Stop-POST5 attached to surface-immobilized ribosomes. Although the distance between the two fluorophores is not close enough to produce FRET, fluorescent pairs could be identified by co-localization on the slide under alternating 532 nm and 640 nm total internal reflection fluorescence (TIRF) illumination. This permits near-simultaneous monitoring of the dynamics of peptide and P-site tRNA release from the Stop-POST5 complex following RFC binding.
To reduce photobleaching of each fluorophore, time-lapse movies were recorded with bursts of 20 or 50 frames at 100 ms frame intervals interleaved by 20 s intervals with the lasers shuttered. Total recording time for each trial was 20 min.
FIG. 8A and FIG. 8C show typical frame by frame recordings indicating a loss of signal for both labeled peptide and labeled tRNA after the addition of the RFC to Atto(pep)-Cy(tRNA)-Stop-POST5. Either peptide (a) or tRNA (b) can dissociate first, in approximately equal proportions. Photobleaching of Cy3-labeled tRNA and Atto647-labeled peptide in the absence of eRF1/eRF3 was much slower (FIG. 8E and FIG. 8F). Under the time lapse illumination employed, mean lifetimes for Atto647-peptide and Cy3-tRNA at 0.32 μM eRF1 and 2 μM eRF3 were each 2.45 min. […]

In data set [2] the test system is Atto(pep)-Stop-POST5 (RFC-dependent termination). In words: Plate reader fluorescence anisotropy assay of pentapeptide release. The data set is classed as biochemical, shrimp (Artemia salina). The following applies: absence of ataluren. How it is done:
Plate reader assays were run in a Tecan F200® 96-well plate reader (Greiner® black, non-binding, chimney flat) equipped with 640 nm excitation and 700 nm polarization filters using 96-well plates. Atto(pep)-Stop-POST5 in Buffer 4 (0.1 μM, 80 μl) containing GTP (1 mM) was added to plate wells±ataluren at 25° C. eRF1 and eRF3 aliquots stored at −80° C. were thawed for 15 s at 37° C. and added directly to a premade ice-cold GTP (1 mM)±ataluren solution in Buffer 4. The resulting release factor solution was incubated at 25° C. for 1 min, and then added quickly in 80 μL portions to the Atto(pep)-Stop-POST5 containing wells with a multichannel pipette to the Atto(pep)-Stop-Posts wells. The final concentrations were: eRF1, 0.025-0.4 μM; eRF3, 0.8 μM; Atto(pep)-Stop-Posts, 0.05 μM. Fluorescence anisotropy decay graphs were fit with GraphPad Prism, using the one phase decay model to obtain peptide dissociation rates.
Ensemble fluorescence anisotropy results using Atto(pep)-Stop-POST5. The fluorescence anisotropy of the pentapeptidyl moiety of Atto(pep)-Stop-POST5 was quite high (0.22), and decreased following addition of RFC, providing a convenient measure of the rate of pentapeptide release from the ribosome. […] Each such time dependency could be fit to a single exponential, giving the collected rate constants presented in FIG. 9G, in which the rate dependence as a function of RFC concentration was measured at 0, 200, 500, and 1,000 μM ataluren. In the absence of ataluren, EC50 (0.029±0.002 μM) and Vmax (0.31±0.02) values were obtained for pentapeptide release similar to those measured by smTIRF. In addition, as with the smTIRF results, Vmax values were unaffected by added ataluren but EC50 values increased, reaching ˜0.06 μM at 1000 μM.

Data set [3] concerns Stop-POST5 complex (RFC-dependent termination). In words: smTIRF assay of RFC-dependent peptide and tRNA release. The following applies: saturating RFC (0.65 μM eRF1, 1.3 μM eRF3). The data set is classed as biochemical, shrimp (Artemia salina).
The subject of data set [4] is Trp-PRE6 complex. In words: smFRET translocation of Trp-PRE6 to Trp-POST6. The data set is classed as biochemical. Conditions: 23° C. The text has this: Changes in FRET (FIGS. 16E-16G) were used to determine the rate of translocation (FIG. 16H) and the residence time of deacylated tRNA dissociation from the E-site (FIG. 16I) as functions of [eEF2.GTP].
The mark [5] stands for this setting: 0.32 μM eRF1 and 2 μM eRF3, time lapse illumination.
Setting [6] is: absence of ataluren, Michaelis-Menten fit.

In the case of “RFC: release factor complex of eRF1 and eRF3 with GTP catalysing termination”, in data set [1] (setting [5]), the “mean lifetime, Atto647-peptide” value amounted to 2.45 min. In addition, in data set [1] (setting [5]), the “mean lifetime, Cy3-tRNA” value was determined as 2.45 min. Further, the “peptide release rate constants, As 2nd product” value in data set [1] ([RFC] 0.016 μM) was 0.12 ± 0.03 min⁻¹; in data set [1] ([RFC] 0.032 μM) it was 0.15 ± 0.02 min⁻¹; in data set [1] ([RFC] 0.080 μM), 0.15 ± 0.02 min⁻¹; in data set [1] ([RFC] 0.166 μM), 0.19 ± 0.02 min⁻¹; in data set [1] ([RFC] 0.32 μM) it was 0.24 ± 0.03 min⁻¹; in data set [1] ([RFC] 0.65 μM) it was 0.23 ± 0.04 min⁻¹. Further, the “peptide release rate constants, As 2nd product” value in data set [1] ([RFC] 1.61 μM) came out at 0.25 ± 0.03 min⁻¹. Moreover, the “peptide release rate constants, Overall” value in data set [1] ([RFC] 0.016 μM) worked out at 0.13 ± 0.02 min⁻¹; in data set [1] ([RFC] 0.032 μM), 0.16 ± 0.02 min⁻¹; in data set [1] ([RFC] 0.080 μM) it was 0.21 ± 0.02 min⁻¹; in data set [1] ([RFC] 0.166 μM), 0.24 ± 0.01 min⁻¹; in data set [1] ([RFC] 0.32 μM), 0.26 ± 0.02 min⁻¹; in data set [1] ([RFC] 0.65 μM) it was 0.27 ± 0.03 min⁻¹. The “peptide release rate constants, Overall” value in data set [1] ([RFC] 1.61 μM) is 0.26 ± 0.02 min⁻¹. Further, the “tRNA release rate constants, As 2nd product” value stood at 0.086 ± 0.023 min⁻¹ in data set [1] ([RFC] 0.016 μM); 0.063 ± 0.021 min⁻¹ in data set [1] ([RFC] 0.032 μM); 0.12 ± 0.02 min⁻¹ in data set [1] ([RFC] 0.080 μM); 0.14 ± 0.03 min⁻¹ in data set [1] ([RFC] 0.166 μM); 0.17 ± 0.03 min⁻¹ in data set [1] ([RFC] 0.32 μM); 0.23 ± 0.04 min⁻¹ in data set [1] ([RFC] 0.65 μM). In addition, the “tRNA release rate constants, As 2nd product” value in data set [1] ([RFC] 1.61 μM) stood at 0.15 ± 0.02 min⁻¹. Moreover, the “tRNA release rate constants, Overall” value was 0.10 ± 0.02 min⁻¹ in data set [1] ([RFC] 0.016 μM); 0.12 ± 0.02 min⁻¹ in data set [1] ([RFC] 0.032 μM); 0.17 ± 0.03 min⁻¹ in data set [1] ([RFC] 0.080 μM); 0.18 ± 0.02 min⁻¹ in data set [1] ([RFC] 0.166 μM); 0.20 ± 0.02 min⁻¹ in data set [1] ([RFC] 0.32 μM); 0.21 ± 0.03 min⁻¹ in data set [1] ([RFC] 0.65 μM). Moreover, the “tRNA release rate constants, Overall” value in data set [1] ([RFC] 1.61 μM) came out at 0.20 ± 0.02 min⁻¹. The “Vmax, peptide dissociation” value in data set [1] (setting [6]) was about 0.27 ± 0.02 min⁻¹. Also, the “Vmax, tRNA dissociation” value in data set [1] (setting [6]) is 0.20 ± 0.02 min⁻¹. In addition, the EC50 was about 20 nM in data set [1] (absence of ataluren, read-out: EC50, peptide dissociation); about 20 nM in data set [1] (absence of ataluren, read-out: EC50, tRNA dissociation); 29 ± 2 nM in data set [2]. The “Vmax, pentapeptide release” value in data set [2] is reported as 0.31±0.02. In addition, in data set [3], the “rate constant, Atto(pep)-Cy(rbsm)-Stop-POST5” value stood at 0.26 ± 0.03 min⁻¹. Besides, the “rate constant, Atto(rbsm)-Cy(tRNA)-Stop-POST5” value in data set [3] was 0.20 ± 0.03 min⁻¹.

B1: eEF2: yeast eukaryotic elongation factor 2 (protein, UniProt P32324 1-842, looked up)
Elongation factor 2: MVAFTVDQMRSLMDKVTNVRNMSVIAHVDHGKSTLTDSLVQRAGIISAAKAGEARFTDTRKDEQERGITIKSTAISLYSEMSDEDVKEIKQKTDGNSFLINLIDSPGHVDFSSEVTAALRVTDGALVVVDTIEGVCVQTETVLRQALGERIKPVVVINKVDRALLELQVSKEDLYQTFARTVESVNVIVSTYADEVLGDVQVYPARGTVAFGSGLHGWAFTIRQFATRYAKKFGVDKAKMMDRLWGDSFFNPKTKKWTNKDTDAEGKPLERAFNMFILDPIFRLFTAIMNFKKDEIPVLLEKLEIVLKGDEKDLEGKALLKVVMRKFLPAADALLEMIVLHLPSPVTAQAYRAEQLYEGPADDANCIAIKNCDPKADLMLYVSKMVPTSDKGRFYAFGRVFAGTVKSGQKVRIQGPNYVPGKKDDLFIKAIQRVVLMMGRFVEPIDDCPAGNIIGLVGIDQFLLKTGTLTTSETAHNMKVMKFSVSPVVQVAVEVKNANDLPKLVEGLKRLSKSDPCVLTYMSESGEHIVAGTGELHLEICLQDLEHDHAGVPLKISPPVVAYRETVESESSQTALSKSPNKHNRIYLKAEPIDEEVSLAIENGIINPRDDFKARARIMADDYGWDVTDARKIWCFGPDGNGPNLVIDQTKAVQYLHEIKDSVVAAFQWATKEGPIFGEEMRSVRVNILDVTLHADAIHRGGGQIIPTMRRATYAGFLLADPKIQEPVFLVEIQCPEQAVGGIYSVLNKKRGQVVSEEQRPGTPLFTVKAYLPVNESFGFTGELRQATGGQAFPQMVFDHWSTLGSDPLDPTSKAGEIVLAARKRHGMKEEVPGWQEYYDKL
As to B1, the “kcat, translocation” value in data set [4] came to 1.0 s⁻¹. For the same molecule, the Km in data set [4] (read-out: Km^eEF2, translocation) came to 0.28 µM.
